Test results taken from ChEMBL document CHEMBL5050861 (2021).
pIC50: −log10 of the molar value. Values after ≈ are worked out from the molar mass of the structure shown.

Key:
[1] = Inhibition of recombinant mouse GALK1 using ATP as substrate incubated for 1 hr and measured by Kinase-Glo assay; conditions: for pIC50: read-out: IC50
[2] = biological target: Galactokinase (Homo sapiens, UniProt P51570); assay: Inhibition of recombinant human GALK1 using ATP as substrate incubated for 1 hr and measured by Kinase-Glo assay; conditions: for pIC50: read-out: IC50
Chain of Galactokinase (P51570 whole entry): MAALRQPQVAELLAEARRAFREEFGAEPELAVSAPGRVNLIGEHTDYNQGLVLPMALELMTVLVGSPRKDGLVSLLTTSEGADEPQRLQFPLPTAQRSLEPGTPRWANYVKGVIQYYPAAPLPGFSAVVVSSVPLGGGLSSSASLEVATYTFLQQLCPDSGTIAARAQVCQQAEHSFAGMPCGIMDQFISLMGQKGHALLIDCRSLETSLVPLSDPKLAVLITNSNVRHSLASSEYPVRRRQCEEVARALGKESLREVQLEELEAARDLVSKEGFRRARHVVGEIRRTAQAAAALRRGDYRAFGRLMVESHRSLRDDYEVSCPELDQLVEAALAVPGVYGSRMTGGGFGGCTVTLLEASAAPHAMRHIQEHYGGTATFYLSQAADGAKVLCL

[3] = Stability of compound in rat microsomes assessed as half-life; type: ADME, Microsome
[4] = Kinetic aqueous solubility of the compound; type: physicochemical; conditions: buffer; read-out: Kinetic_solubility
[5] = Permeability of compound by PAMPA assay; type: ADME; conditions: read-out: permeability
[6] = Inhibition of human GALK1 K252A/E253A double mutant; conditions: for pIC50: read-out: IC50
[7] = species: Homo sapiens; assay: Inhibition of human GALK1 K252A/E253A double mutant relative to control; set-up: concentration or dose not given beside the values; conditions: concentration not given here
[8] = test system: Fibroblast; assay: Inhibition of human GALK1 K252A/E253A double mutant in human skin fibroblasts at 10 uM assessed as reduction in Gal-1P accumulation; type: cell-based

Row | SMILES | IC50 [1] | IC50 [2] | half-life [3] [min] | solubility kinetic [4] [µg/mL] | pIC50 [1] | Papp [5] [×10⁻⁶ cm/s] | pIC50 [2] | pIC50 [6] | inhibition [7] [%] | IC50 [6] | inhibition [8] [%]
1 | CC1=C(C(=O)NCc2ccccc2Cl)C(c2ccccc2Cl)N=C(Nc2nc3ccccc3o2)N1 (stereo not drawn) | Not Active | Not Active | 4.22 | < 1 |  |  |  |  |  |  | 
2 | CC1=C(C(=O)NCc2ccc(Cl)cc2)C(c2ccccc2Cl)N=C(Nc2nc3ccccc3o2)N1 (stereo not drawn) | Not Active | Not Active | 11.9 | < 1 |  |  |  |  |  |  | 
3 | COC(=O)c1ccnc(NC(=O)C2=C(C)NC(Nc3nc4ccccc4o3)=N[C@@H]2c2ccccc2Cl)c1 | Not Active | Not Active | 25.6 | < 1 |  |  |  |  |  |  | 
4 | CCn1cc(C(C)NC(=O)C2=C(C)NC(Nc3nc4cccc(N)c4o3)=NC2c2ccc(C)cc2Cl)cn1 (stereo not drawn) |  |  | 17.9 | < 1 | 5.96 | 333 | 7.30 |  |  |  | 
5 | CC1=C(C(=O)Nc2cc(C(=O)O)ccn2)C(c2cccc(C(F)(F)F)c2)N=C(Nc2nc3ccc(F)cc3o2)N1 (stereo not drawn) | Not Active |  | > 30 | 60.1 (≈ 108 µM) |  | < 1 |  | < 4.82 | 90 |  | 
6 | CC1=C(C(=O)Nc2cc(C(=O)O)ccn2)C(c2cccc(Cl)c2Cl)N=C(Nc2nc3ccc(F)cc3o2)N1 (stereo not drawn) |  |  | > 30 | 55.5 (≈ 99.9 µM) | 4.66 | < 10 |  | 5.44 | 100 |  | 
7 | CC1=C(C(=O)NCc2nc3ccccc3n2C)C(c2ccccc2Cl)N=C(Nc2nc3ccccc3o2)N1 (stereo not drawn) |  |  | 4.52 | < 1 | 4.86 | < 10 |  |  | 48 | Not Active | 
8 | CC1=C(C(=O)Nc2cc(C(=O)O)ccn2)C(c2ccccc2Cl)N=C(Nc2nc3cccc(OC(F)(F)F)c3o2)N1 (stereo not drawn) | Not Active | Not Active | > 30 | 47.8 (≈ 81.4 µM) |  | < 10 |  | < 4.82 | 88 |  | 
9 | CC1=C(C(=O)Nc2cc(C(=O)O)ccn2)[C@H](c2ccccc2Cl)N=C(Nc2nc3cccc(N)c3o2)N1 |  |  |  |  | 5.76 |  | 7.07 |  |  |  | 
10 | COC(=O)C1=C(C(F)(F)F)NC(Nc2nc3ccccc3o2)=NC1c1ccccc1Cl (stereo not drawn) | Not Active | Not Active | 10.5 | 2.65 (≈ 5.88 µM) |  |  |  |  |  |  | 
11 | COC(=O)c1ccnc(NC(=O)C2=C(C)NC(Nc3nc4cccc(N)c4o3)=NC2c2ccc(C)cc2Cl)c1 (stereo not drawn) |  |  | 25.3 | < 1 | 5.15 |  | 5.65 |  |  |  | 
12 | CCOC(=O)C1=C(C(C)C)NC(Nc2nc3ccccc3o2)=NC1c1ccccc1Cl (stereo not drawn) | Not Active | Not Active | 5.75 | < 1 |  |  |  |  |  |  | 
13 | COC(=O)c1ccccc1NC(=O)C1=C(C)NC(Nc2nc3ccccc3o2)=NC1c1ccccc1Cl (stereo not drawn) | Not Active | Not Active |  |  |  |  |  |  |  |  | 
14 | CC1=C(C(=O)Nc2nnc(-c3cccnc3)s2)C(c2ccccc2Cl)N=C(Nc2nc3ccc(C)cc3o2)N1 (stereo not drawn) | Not Active | Not Active | > 30 | < 1 |  | < 2.9 |  |  |  |  | 
15 | CC1=C(C(=O)Nc2cc(C(=O)O)ccn2)C(c2ccccc2Cl)N=C(Nc2nc3c(F)cccc3o2)N1 (stereo not drawn) |  |  | > 30 | < 10000 | 4.66 | > 100 |  | 5.51 | 94 |  | 
16 | CC1=C(C(=O)Nc2cc(C(=O)O)ccn2)C(c2cccc(C(F)(F)F)c2Cl)N=C(Nc2nc3ccc(F)cc3o2)N1 (stereo not drawn) |  |  | > 30 | 70.1 (≈ 119 µM) | 4.56 | < 10 |  | 5.62 | 97 |  | 
17 | CC1=C(C(=O)Nc2cc(C(=O)O)ccn2)C(c2ccccc2Cl)N=C(Nc2nc3cccc(C)c3o2)N1 (stereo not drawn) |  |  | > 30 | > 76 | 5.16 | < 10 |  | 6.44 | 100 |  | 
18 | COCC1=C(C(=O)Nc2nncs2)C(c2ccccc2Cl)N=C(Nc2nc3ccccc3o2)N1 (stereo not drawn) |  |  | > 30 | < 1 | 4.71 |  | 4.86 |  |  |  | 
19 | CC1=C(C(=O)Nc2cc(C(=O)O)ccn2)C(c2ccccc2Cl)N=C(Nc2nc3cc(F)ccc3o2)N1 (stereo not drawn) |  |  | < 10 | < 10000 | 4.76 | < 10 |  | 5.44 | 100 |  | 
20 | CC1=C(C(=O)Nc2cc(C(=O)O)ccn2)C(c2ccccc2Cl)N=C(Nc2nc3cc(C)ccc3o2)N1 (stereo not drawn) |  |  | > 30 | < 1 | 5.51 | < 1 |  | 6.21 | 100 |  | 
21 | CC1=C(C(=O)Nc2cc(C(=O)O)ccn2)C(c2ccccc2Cl)N=C(Nc2nc3cc(Cl)ccc3o2)N1 (stereo not drawn) |  |  | > 30 | 35.2 (≈ 65.5 µM) | 5.21 | < 1 |  | 5.77 | 100 |  | 

Second part, led by results:

Row | IC50 [1] | IC50 [2] | half-life [3] [min] | solubility kinetic [4] [µg/mL] | pIC50 [1] | Papp [5] [×10⁻⁶ cm/s] | pIC50 [2] | pIC50 [6] | inhibition [7] [%] | IC50 [6] | SMILES | inhibition [8] [%]
22 | Not Active | Not Active | 1.18 | < 1 |  |  |  |  |  |  | CC1=C(C(=O)N(C)c2ccccc2)C(c2ccccc2Cl)N=C(Nc2nc3ccccc3o2)N1 (stereo not drawn) | 
23 | Not Active | Not Active | 8.73 | 40.5 (≈ 85.1 µM) |  |  |  |  |  |  | CC1=C(C(=O)NCc2cn(C)cn2)[C@@H](c2ccccc2Cl)N=C(Nc2nc3ccccc3o2)N1 | 
24 |  | Not Active | > 30 | < 1 | 5.11 | 2 |  |  |  |  | CC1=C(C(=O)Nc2ccc(Cl)cc2)C(c2ccccc2Cl)N=C(Nc2nc3ccccc3o2)N1 (stereo not drawn) | 
25 | Not Active | Not Active | > 30 | < 1 |  | < 19.1 |  |  |  |  | COc1ccc2oc(NC3=NC(c4ccccc4Cl)C(C(=O)Nc4nnc(-c5cccnc5)s4)=C(C)N3)nc2c1 (stereo not drawn) | 
26 |  |  | > 30 | < 1 |  | 8.8 | 5.41 |  |  |  | CCOC(=O)c1ccc(NC(=O)C2=C(C)NC(Nc3nc4ccccc4o3)=NC2c2ccccc2Cl)cc1 (stereo not drawn) | 
27 |  |  | > 30 | 8.3 (≈ 15.1 µM) | 5.51 | < 10 |  | 6.52 | 100 |  | COc1ccc(C2N=C(Nc3nc4ccc(F)cc4o3)NC(C)=C2C(=O)Nc2cc(C(=O)O)ccn2)c(Cl)c1 (stereo not drawn) | 
28 |  |  | 6.42 | 23 (≈ 48.3 µM) | 4.86 | > 1110 |  | 4.96 | 94 |  | CC1=C(C(=O)NCc2nccn2C)C(c2ccccc2Cl)N=C(Nc2nc3ccccc3o2)N1 (stereo not drawn) | 
29 |  |  | > 30 | 57.5 (≈ 107 µM) | 5.01 | < 1 |  | 6.00 | 100 |  | CC1=C(C(=O)Nc2cc(C(=O)O)ccn2)C(c2ccccc2Cl)N=C(Nc2nc3cccc(Cl)c3o2)N1 (stereo not drawn) | 
30 |  |  | > 30 | 36 (≈ 63.7 µM) | 5.41 | < 10 |  | 6.63 | 100 |  | CC1=C(C(=O)Nc2cc(C(=O)O)ccn2)C(c2ccccc2Br)N=C(Nc2nc3ccc(F)cc3o2)N1 (stereo not drawn) | 
31 | Not Active | Not Active | > 30 | < 1 |  | < 1.8 |  |  |  |  | CC1=C(C(=O)Nc2cccc(Br)c2)C(c2ccccc2Cl)N=C(Nc2nc3ccccc3o2)N1 (stereo not drawn) | 
32 |  |  | > 30 | 3.5 (≈ 6.77 µM) | 4.76 | < 1.3 |  | 5.26 | 100 |  | CC1=C(C(=O)Nc2cc(C(=O)O)ccn2)C(c2ccccc2Cl)N=C(Nc2nc3c(C)cccc3o2)N1 (stereo not drawn) | 
33 |  | Not Active | 19.3 | < 1 | 4.86 |  |  |  |  |  | CCOC(=O)C1=C(C)NC(Nc2nc3ccccc3o2)=NC1c1ccccc1Cl (stereo not drawn) | 
34 | Not Active | Not Active | > 30 | < 1 |  | < 9.2 |  |  |  |  | CC1=C(C(=O)Nc2cccc(Cl)c2)C(c2ccccc2Cl)N=C(Nc2nc3ccccc3o2)N1 (stereo not drawn) | 
35 |  |  | > 30 | 61.1 (≈ 107 µM) | 4.31 | < 1 |  | < 4.82 | 100 |  | CC1=C(C(=O)Nc2cc(C(=O)O)ccn2)C(c2ccccc2Cl)N=C(Nc2nc3cccc(C(F)(F)F)c3o2)N1 (stereo not drawn) | 
36 | Not Active | Not Active | > 30 | 50.9 (≈ 115 µM) |  |  |  |  |  |  | CC1=C(C(=O)Nc2nncs2)C2(Cc3ccccc32)N=C(Nc2nc3ccccc3o2)N1 (stereo not drawn) | 
37 |  |  | 14.1 | < 1 | 6.21 |  |  | 7.66 |  |  | CCn1cc(CNC(=O)C2=C(C)NC(Nc3nc4ccc(F)c(N)c4o3)=NC2c2ccc(C)cc2Cl)cn1 (racemic) | 70
38 |  |  | > 30 | < 1 | 4.86 | < 1.3 |  | 5.24 | 85 |  | CC1=C(C(=O)Nc2cc(C(=O)O)ccn2)C(c2ccccc2Cl)N=C(Nc2nc3c(Cl)cccc3o2)N1 (stereo not drawn) | 
39 |  |  | < 10 | < 10000 | 4.81 | < 10 |  | 5.74 | 100 |  | CC1=C(C(=O)Nc2cc(C(=O)O)ccn2)C(c2cccc(F)c2Cl)N=C(Nc2nc3ccc(F)cc3o2)N1 (stereo not drawn) | 
40 |  |  | > 30 | > 78 | 4.66 | < 1 |  | 5.42 | 90 |  | CC1=C(C(=O)Nc2cc(C(=O)O)ccn2)C(c2cccc(C(N)=O)c2)N=C(Nc2nc3ccc(F)cc3o2)N1 (stereo not drawn) | 
41 |  |  | > 30 | 6.3 (≈ 11.7 µM) | 5.21 | < 10 |  | 5.65 | 100 |  | CC1=C(C(=O)Nc2cc(C(=O)O)ccn2)C(c2ccccc2Cl)N=C(Nc2nc3ccc(Cl)cc3o2)N1 (stereo not drawn) | 
